Experimental data as given in patent US20070128217A1 (priority 2003, published 2007).

Experiments:
[1] = tested on: rabbit serum obtained by immunizing a rabbit with the SARS-CoV strain Frankfurt 1; type: binding; set-up: Binding of a rabbit serum to linear peptides / Binding of a rabbit serum to looped peptides / Rabbit serum linear peptides / Rabbit serum looped peptides / Binding of a rabbit serum to linear peptides of protein N of SARS-CoV Urbani (Rabbit serum linear peptides) / Binding of a rabbit serum to looped/cyclic peptides of protein N of SARS-CoV Urbani (Rabbit serum looped peptides): unit not given here
[2] = tested on: control sera (pooled serum of ten healthy LUMC hospital workers; commercial negative donor pooled serum from the Dutch bloodbank); type: binding, human; set-up: Binding of Control serum LUMC to linear peptides / Binding of Control serum Blood-bank to linear peptides / Binding of Control serum LUMC to looped peptides / Binding of Control Serum Blood-Bank to Looped peptides / Binding of Control serum LUMC to linear peptides of the protein M of SARS-CoV Urbani / Binding of Control serum Blood-bank to linear peptides of the protein M of SARS-CoV Urbani / Binding of Control serum LUMC to looped peptides of the protein M of SARS-CoV Urbani / Binding of Control Serum Blood-Bank to Looped peptides of the protein M of SARS-CoV Urbani: unit not given here
[3] = tested on: antibodies in sera from SARS patients (sera 1a, 1b, 2, 6, 37, 62, London, SARS-yellow, SARS-green); type: binding, human; set-up: Binding of serum 6 to linear peptides of protein X1 of SARS-CoV Urbani / Binding of serum 37 to linear peptides of protein X1 of SARS-CoV Urbani / Binding of serum 6 to looped/cyclic peptide (PEPSCAN-ELISA) / Binding of serum 37 to looped/cyclic peptide (PEPSCAN-ELISA) / Binding of serum 37 to looped/cyclic peptides of protein X1 of SARS-CoV Urbani / Binding of serum 6 to linear peptides of protein X2 / Binding of serum 37 to linear peptides of protein X2 / Binding of serum 37 to looped/cyclic peptides of protein X2 of SARS-CoV Urbani / Binding of serum 6 to linear peptides of protein M of SARS-CoV Urbani / Binding of serum 37 to linear peptides of protein M of SARS-CoV Urbani / Binding of serum 6 to looped/cyclic peptides of protein M of SARS-CoV Urbani / Binding of serum 37 to looped/cyclic peptides of protein M of SARS-CoV Urbani / Binding of serum 6 to linear peptides of protein X3 of SARS-CoV Urbani / Binding of serum 37 to linear peptides of protein X3 of SARS-CoV Urbani / Binding of serum 37 to looped/cyclic peptides of protein X3 of SARS-CoV Urbani / Binding of serum 6 to linear peptides of protein X4 of SARS-CoV Urbani / Binding of serum 37 to linear peptides of protein X4 of SARS-CoV Urbani / Binding of serum 37 to looped/cyclic peptides of protein X4 of SARS-CoV Urbani / Binding of serum 6 to linear peptides of protein X5 of SARS-CoV Urbani / Binding of serum 37 to linear peptides of protein X5 of SARS-CoV Urbani / Binding of serum 37 to looped/cyclic peptides of protein X5 of SARS-CoV Urbani / Binding of serum 6 to linear peptides of protein N of SARS-CoV Urbani / Binding of serum 37 to linear peptides of protein N of SARS-CoV Urbani / Binding of serum 6 to linear peptide (PEPSCAN-ELISA) / Binding of serum 1a to looped/cyclic peptides of protein N of SARS-CoV Urbani / Binding of serum 1b to looped/cyclic peptides of protein N of SARS-CoV Urbani / Binding of serum 2 to looped/cyclic peptides of protein N of SARS-CoV Urbani / Binding of serum 6 to looped/cyclic peptides of protein N of SARS-CoV Urbani / Binding of serum 37 to looped/cyclic peptides of protein N of SARS-CoV Urbani / Binding of serum 62 to looped/cyclic peptides of protein N of SARS-CoV Urbani / Binding of serum London to looped/cyclic peptides of protein N of SARS-CoV Urbani / Binding of serum SARS-green to looped/cyclic peptides of protein N of SARS-CoV Urbani: unit not given here

QELYSPLFLIVAALV
Rabbit serum linear peptides [1]: 0.4
Rabbit serum looped peptides [1]: 0.5
Binding of Control Serum Blood-Bank to Looped peptides [2]: 0.7
Binding of Control serum Blood-bank to linear peptides [2]: 0.6
Binding of Control serum LUMC to linear peptides [2]: 0.6
Binding of Control serum LUMC to looped peptides [2]: 0.7
Binding of serum 1a to linear peptides of protein X4 of SARS-CoV Urbani [3]: 0.7
Binding of serum 1a to looped/cyclic peptides of protein X4 of SARS-CoV Urbani [3]: 0.6
Binding of serum 1b to linear peptides of protein X4 of SARS-CoV Urbani [3]: 0.5
Binding of serum 1b to looped/cyclic peptides of protein X4 of SARS-CoV Urbani [3]: 0.4
Binding of serum 2 to linear peptides of protein X4 of SARS-CoV Urbani [3]: 0.8
Binding of serum 2 to looped/cyclic peptides of protein X4 of SARS-CoV Urbani [3]: 0.6
Binding of serum 6 to linear peptides of protein X4 of SARS-CoV Urbani [3]: 0.6
Binding of serum 6 to looped/cyclic peptides of protein X4 of SARS-CoV Urbani [3]: 0.3
Binding of serum 37 to linear peptides of protein X4 of SARS-CoV Urbani [3]: 0.7
Binding of serum 37 to looped/cyclic peptides of protein X4 of SARS-CoV Urbani [3]: 0.6
Binding of serum 62 to linear peptides of protein X4 of SARS-CoV Urbani [3]: 0.7
Binding of serum 62 to looped/cyclic peptides of protein X4 of SARS-CoV Urbani [3]: 0.6
Binding of serum London to linear peptides of protein X4 of SARS-CoV Urbani [3]: 0.7
Binding of serum London to looped/cyclic peptides of protein X4 of SARS-CoV Urbani [3]: 0.3
Binding of serum SARS-green to linear peptides of protein X4 of SARS-CoV Urbani [3]: 0.5
Binding of serum SARS-green to looped/cyclic peptides of protein X4 of SARS-CoV Urbani [3]: 0.6
Binding of serum SARS-yellow to linear peptides of protein X4 of SARS-CoV Urbani [3]: 0.2
Binding of serum SARS-yellow to looped/cyclic peptides of protein X4 of SARS-CoV Urbani [3]: 0.5

YNTRGNTYSTAWLCA
Rabbit serum linear peptides [1]: 0.7
Rabbit serum looped peptides [1]: 0.0
Binding of Control Serum Blood-Bank to Looped peptides [2]: 0.5
Binding of Control serum Blood-bank to linear peptides [2]: 0.7
Binding of Control serum LUMC to linear peptides [2]: 0.6
Binding of Control serum LUMC to looped peptides [2]: 0.5
Binding of serum 1a to linear peptides of protein X5 of SARS-CoV Urbani [3]: 0.8
Binding of serum 1a to looped/cyclic peptides of protein X5 of SARS-CoV Urbani [3]: 0.3
Binding of serum 1b to linear peptides of protein X5 of SARS-CoV Urbani [3]: 0.6
Binding of serum 1b to looped/cyclic peptides of protein X5 of SARS-CoV Urbani [3]: 0.2
Binding of serum 2 to linear peptides of protein X5 of SARS-CoV Urbani [3]: 0.6
Binding of serum 2 to looped/cyclic peptides of protein X5 of SARS-CoV Urbani [3]: 0.4
Binding of serum 6 to linear peptides of protein X5 of SARS-CoV Urbani [3]: 0.8
Binding of serum 6 to looped/cyclic peptides of protein X5 of SARS-CoV Urbani [3]: 0.4
Binding of serum 37 to linear peptides of protein X5 of SARS-CoV Urbani [3]: 0.7
Binding of serum 37 to looped/cyclic peptides of protein X5 of SARS-CoV Urbani [3]: 0.0
Binding of serum 62 to linear peptides of protein X5 of SARS-CoV Urbani [3]: 0.7
Binding of serum 62 to looped/cyclic peptides of protein X5 of SARS-CoV Urbani [3]: 0.2
Binding of serum London to linear peptides of protein X5 of SARS-CoV Urbani [3]: 0.8
Binding of serum London to looped/cyclic peptides of protein X5 of SARS-CoV Urbani [3]: 0.2
Binding of serum SARS-green to linear peptides of protein X5 of SARS-CoV Urbani [3]: 0.7
Binding of serum SARS-green to looped/cyclic peptides of protein X5 of SARS-CoV Urbani [3]: 0.2
Binding of serum SARS-yellow to linear peptides of protein X5 of SARS-CoV Urbani [3]: 0.4
Binding of serum SARS-yellow to looped/cyclic peptides of protein X5 of SARS-CoV Urbani [3]: 0.6

SPKFTTSLSLHKLLQ
Binding of a rabbit serum to linear peptides [1]: 0.3
Binding of a rabbit serum to looped peptides [1]: 0.5
Binding of Control Serum Blood-Bank to Looped peptides [2]: 0.5
Binding of Control serum Blood-bank to linear peptides [2]: 0.5
Binding of Control serum LUMC to linear peptides [2]: 0.3
Binding of Control serum LUMC to looped peptides [2]: 0.6
Binding of serum 1a to linear peptides of protein X2 [3]: 0.6
Binding of serum 1a to looped/cyclic peptides of protein X2 of SARS-CoV Urbani [3]: 0.5
Binding of serum 1b to linear peptides of protein X2 [3]: 0.4
Binding of serum 1b to looped/cyclic peptides of protein X2 of SARS-CoV Urbani [3]: 0.5
Binding of serum 2 to linear peptides of protein X2 [3]: 0.4
Binding of serum 2 to looped/cyclic peptides of protein X2 of SARS-CoV Urbani [3]: 0.3
Binding of serum 6 to linear peptides of protein X2 [3]: 0.4
Binding of serum 6 to looped/cyclic peptides of protein X2 of SARS-CoV Urbani [3]: 0.4
Binding of serum 37 to linear peptides of protein X2 [3]: 0.5
Binding of serum 37 to looped/cyclic peptides of protein X2 of SARS-CoV Urbani [3]: 0.3
Binding of serum 62 to linear peptides of protein X2 [3]: 0.5
Binding of serum 62 to looped/cyclic peptides of protein X2 of SARS-CoV Urbani [3]: 0.5
Binding of serum London to linear peptides of protein X2 [3]: 0.4
Binding of serum London to looped/cyclic peptides of protein X2 of SARS-CoV Urbani [3]: 0.2
Binding of serum SARS-green to linear peptides of protein X2 [3]: 0.5
Binding of serum SARS-green to looped/cyclic peptides of protein X2 of SARS-CoV Urbani [3]: 0.2
Binding of serum SARS-yellow to linear peptides of protein X2 [3]: 0.3
Binding of serum SARS-yellow to looped/cyclic peptides of protein X2 of SARS-CoV Urbani [3]: 0.3
